# Like-named read-outs stand apart in the source and are kept apart here.
# Assays:
# THP-1 cells = test: TNF-α ELISA assay in LPS-stimulated THP-1 cells; type: cell-based, human; conditions: TNF-α in supernatant, 150 ng/mL LPS
# Protocol: TNF-α ELISA Assay in THP-1 Cells THP-1 human acute unicellular leukemia cells were purchased from ATCC (Cat #TIB-202) and incubated in a 37° C., 5% CO2 incubator. The medium was RPMI1640 (Gibco, Cat #22400-105), the supplementary was 10% FBS (Gibco, Cat #10091148); 1% PenStrep (Gibco, Cat #15140); 0.05 mM 2-mercaptoethanol (Sigma, Cat #M6250). TNF-α content in the culture supernatant was measured by a TNF-α Elisa kit. TNF-α was produced by stimulation of THP-1 cells with 150 ng/mL LPS (Sigma, Cat #L6529). Normal THP-1 cells in logarithmic phase were inoculated in 96-well plates (Corning #3599) at a certain concentration (1×10^5/100 μL) and then incubated in an incubator. After two hours, 16.7 μL of test compound of different concentrations (8×final concentration) was added and the mixture was incubated. After one hour, 16.7 μL of 1200 ng/mL LPS was added and the mixture was incubated. After 18 hours, the culture was centrifuged and the supernatant was collected. The TNF-α content was measured by a TNF-α Elisa kit. Finally, the OD signals (OD450-OD570) were read on an envision plate reader. The OD450-OD570 signals were converted to percent inhibition. Inhibition %=(ZPE−sample)/(ZPE−HPE)×100. “HPE” represents the OD450-OD570 signal value of the control without LPS-stimulated cells, and “ZPE” represents the OD450-OD570 signal value of the control with LPS-stimulated cells. IC50 values for compounds were calculated by XLFit in the Excel. Y=Bottom+(Top−Bottom)/(1+(IC50/X)^HillSlope). Equation: […]
# human IRAK4 = human IRAK4 (Homo sapiens (Human), UniProt Q9NWZ3); test: 33P-labeled kinase activity assay (Reaction Biology Corp), in vitro enzymatic activity; type: biochemical; conditions: 20 μM ATP, 3 nM kinase, MBP substrate
# Chain of human IRAK4 (Q9NWZ3 whole entry): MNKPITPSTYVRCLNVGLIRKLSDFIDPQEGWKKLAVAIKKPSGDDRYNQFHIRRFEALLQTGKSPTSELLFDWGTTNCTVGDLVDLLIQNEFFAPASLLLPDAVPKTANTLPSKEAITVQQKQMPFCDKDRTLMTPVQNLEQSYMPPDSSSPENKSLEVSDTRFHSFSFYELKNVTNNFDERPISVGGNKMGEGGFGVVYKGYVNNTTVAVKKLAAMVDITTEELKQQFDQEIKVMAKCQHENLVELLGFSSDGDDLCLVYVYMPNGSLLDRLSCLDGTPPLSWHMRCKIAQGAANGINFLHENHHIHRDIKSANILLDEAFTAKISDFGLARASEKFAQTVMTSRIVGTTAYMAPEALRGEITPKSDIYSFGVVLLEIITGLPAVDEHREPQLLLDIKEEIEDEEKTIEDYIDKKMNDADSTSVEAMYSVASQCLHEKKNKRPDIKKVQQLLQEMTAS
# Protocol: The inhibitory activity of the test compounds against human IRAK4 was evaluated by measuring IC50 values in a ^33P-labeled kinase activity assay (Reaction Biology Corp). Buffer conditions: 20 mM Hepes (pH 7.5), 10 mM MgCl2, 1 mM EGTA, 0.02% Brij35, 0.02 mg/mL BSA, 0.1 mM Na3VO4, 2 mM DTT, 1% DMSO. Procedures: The test compound was dissolved in DMSO at room temperature to prepare a 10 mM solution for later use. The substrate was dissolved in fresh buffer, to which the kinase was added and mixed well. The DMSO solution containing the test compound was added to the above mixed reaction system by an acoustic technique (Echo 550). The concentrations of the compounds in reaction system were 10 μM, 3.33 μM, 1.11 μM, 0.370 μM, 0.123 μM, 41.2 nM, 13.7 nM, 4.57 nM, 1.52 nM, and 0.508 nM. After 15 minutes of incubation, the reaction was started by adding ^33P-ATP (activity: 0.01 μCi/μL; the corresponding concentration is listed in Table 1). Supplier's catalog number, lot number and concentration information in the reaction system for IRAK4 and its substrate are listed in Table 1. After 120 minutes of reaction at room temperature, the resulting solution was loaded on P81 ion exchange chromatography paper sheet (Whatman #3698-915). After repeated washing with 0.75% phosphoric acid solution, the radioactivity of the phosphorylated substrate residue on the paper sheet was measured. The kinase activity data are shown as a comparison of the kinase activity of the test compound and the kinase activity of the blank (DMSO only) and a curve was fitted using Prism4 software (GraphPad) to give IC50 values, with the experimental results shown in Table 2. [table]
# [1] = Pharmacokinetic study of oral and intravenous test compounds in SD rats; type: in vivo; conditions: rat, plasma, SD male rats; for AUC(0-t): read-out: Area under plasma concentration-time curve AUC0-last
# Protocol: Pharmacokinetic Study of Oral and Intravenous Test Compounds in SD Rats The test compound was mixed with a solution containing 10% of methyl pyrrolidone, 10% of polyethylene glycol stearate and 80% of water. The mixture was vortexed and sonicated to prepare a 1.5 mg/mL clarified solution, which was then filtered through a microporous membrane for later use. SD male rats aged 7 to 10 weeks were selected and administered intravenously with a dose of the candidate compound at 3 mg/kg. The test compound was mixed with 0.5% aqueous methylcellulose solution. The mixture was vortexed and sonicated to prepare a 2 mg/mL suspension for later use. SD male rats aged 7 to 10 weeks were selected and orally administered with a dose of the candidate compound at 10 mg/kg. Whole blood was collected at certain time points, and plasma was separated. The drug concentration was measured by LC-MS/MS, and pharmacokinetic parameters were calculated using Phoenix WinNonlin software (Pharsight, USA).
"IC50 (THP-1 cells; Homo sapiens, THP-1, 18 h) [nM]",IC50 (human IRAK4) [nM],Compound,further results
234,1.6,CCOC(=O)N1CCN([C@H]2CC[C@H](Nc3nc(Nc4cnn(C5CCOCC5)c4)nc4snc(C)c34)CC2)CC1 [WX028],–
–,5,Cc1nsc2nc(Nc3cnn(C4CCOCC4)c3)nc(N[C@H]3CC[C@H](N4CCC(C(=O)O)CC4)CC3)c12 [WX057],–
–,10.7,COC(=O)N1CCN([C@H]2CC[C@H](Nc3nc(Nc4cnn(C)c4)nc4snc(C)c34)CC2)CC1 [WX035],–
639,3.3,CC(=O)N1CCN([C@H]2CC[C@H](Nc3nc(Nc4cnn(C5CCOCC5)c4)nc4snc(C)c34)CC2)CC1 [WX027],–
308,7.5,Cc1nsc2nc(Nc3cnn(C4CCOCC4)c3)nc(N[C@H]3CC[C@H](N4CCN(C)CC4)CC3)c12 [WX030],–
–,45.9,Cc1nsc2nc(Nc3cnn(CCO)c3)nc(N[C@H]3CC[C@H](N4CCOCC4)CC3)c12 [WX010],–
165,11.7,N#CCc1nsc2nc(Nc3cnn(C4CCOCC4)c3)nc(N[C@H]3CC[C@H](N4CCOCC4)CC3)c12 [WX055],–
–,460,Cc1nsc2nc(Nc3cnn(C4CCOCC4)c3)nc(N[C@H]3CC[C@H](N4CCNC(=O)C4)CC3)c12 [WX048],–
–,–,"NC(=O)C[C@H]1CCc2sc3ncnc(O[C@H]4CC[C@H](N5CCOCC5)CC4)c3c21 [WXR2, ND-2110, reference compound]","Vd ([1]; Intravenous, 3 mg/kg, read-out: Apparent volume of distribution Vdss): 1.6 L/kg; AUC(0-t) ([1]; Intravenous, 3 mg/kg): 3.68 µM·h; clearance ([1]; Intravenous, 3 mg/kg, read-out: Clearance CL): 33.2 mL/min/kg; half-life ([1]; Intravenous, 3 mg/kg, read-out: Half life T1/2 (converted)): 78 min; AUC(0-t) ([1]; Oral, 10 mg/kg): 2.13 µM·h; bioavailability ([1]; Oral, 10 mg/kg, read-out: Bioavailability F): 18%; Cmax ([1]; Oral, 10 mg/kg, read-out: Peak concentration Cmax): 893 nM; Tmax ([1]; Oral, 10 mg/kg, read-out: Time to peak Tmax): 36 min"
–,17,O=C(O)Cc1nsc2nc(Nc3cnn(C4CCOCC4)c3)nc(N[C@H]3CC[C@H](N4CCOCC4)CC3)c12 [WX056],–
–,89.5,Cc1nsc2nc(Nc3cnn(C4CCOCC4)c3)nc(O[C@H]3CC[C@H](N4CCOCC4)CC3)c12 [WX002],–
–,278,Cc1nsc2nc(Nc3cnn(C4CCOCC4)c3)nc(N[C@H]3CC[C@H](N4C[C@H]5C[C@@H]4CN5C)CC3)c12 [WX045],–
–,12.8,COC(=O)N1CCN([C@H]2CC[C@H](Nc3nc(Nc4cnn([C@H]5CCOC5)c4)nc4snc(C)c34)CC2)CC1 [WX034],–
–,1.8,Cc1nsc2nc(Nc3cnn(C4CCOCC4)c3)nc(N[C@H]3CC[C@H](N4CCC(O)CC4)CC3)c12 [WX052],–
–,7.3,Cc1nsc2nc(Nc3cnn(C4CCOCC4)c3)nc(N[C@H]3CC[C@H](N4CC(O)C4)CC3)c12 [WX060],–
952,20.5,Cc1nsc2nc(Nc3cnn(C[C@@H]4COCCO4)c3)nc(N[C@H]3CC[C@H](N4CCOCC4)CC3)c12 [WX015],–
–,357,Cc1nsc2nc(Nc3cnn(CC(=O)O)c3)nc(N[C@H]3CC[C@H](N4CCOCC4)CC3)c12 [WX011],–
689,13.4,Cc1nsc2nc(Nc3cnn(C4CCOCC4)c3)nc(N[C@H]3CC[C@H](N4CCNC5(CC5)C4)CC3)c12 [WX050],–
–,12.8,COC(=O)N1CCN([C@H]2CC[C@H](Nc3nc(Nc4cnn([C@@H]5CCOC5)c4)nc4snc(C)c34)CC2)CC1 [WX033],–

"IC50 (THP-1 cells; Homo sapiens, THP-1, 18 h) [nM]",IC50 (human IRAK4) [nM],Compound,further results
317,2.4,Cc1nsc2nc(Nc3cnn(C4CCOCC4)c3)nc(N[C@H]3CC[C@H](N4CCN(C5CC5)CC4)CC3)c12 [WX031],–
–,27.2,Cc1nsc2nc(Nc3cnn(C4CCOC4)c3)nc(N[C@H]3CC[C@H](N4CCOCC4)CC3)c12 (stereo partly shown) [WX008],IC50 (THP-1 cells; 18 hours): 279 nM
663,30.3,Cc1nsc2nc(Nc3cnn(C[C@H]4COCCO4)c3)nc(N[C@H]3CC[C@H](N4CCOCC4)CC3)c12 [WX014],–
4160,5.5,Cc1nsc2nc(Nc3cnn(C4CCOCC4)c3)nc(NC3CCC(N4CCCNCC4)CC3)c12 (stereo not shown) [WX036],–
296,9.2,Cc1nsc2nc(Nc3cnn(C4CCOCC4)c3)nc(NC3CCC(N4CCCN(C)CC4)CC3)c12 (stereo not shown) [WX037],–
216,1.3,CC(=O)N1CCCN(C2CCC(Nc3nc(Nc4cnn(C5CCOCC5)c4)nc4snc(C)c34)CC2)CC1 (stereo not shown) [WX038],–
–,13.7,Cc1nsc2nc(Nc3cnn(C4CCOCC4)c3)nc(N[C@H]3CC[C@H](N4CCNCC4C)CC3)c12 (stereo partly shown) [WX051],–
–,60.1,Cc1nsc2nc(Nc3cnn(C4CCOCC4)c3)nc(N(C)[C@H]3CC[C@H](N4CCOCC4)CC3)c12 [WX013],–
–,2.1,Cc1nsc2nc(Nc3cnn(C4CCOCC4)c3)nc(N[C@H]3CC[C@H](N4CCC(N(C)C)CC4)CC3)c12 [WX058],–
–,15.2,COC(=O)N1CCN([C@H]2CC[C@H](Nc3nc(Nc4cnn(C5CCOC5)c4)nc4snc(C)c34)CC2)CC1 (stereo partly shown) [WX032],–
–,23.6,Cc1nsc2nc(Nc3cnn(C4CCOCC4)c3)nc(N[C@H]3CC[C@H](N4CCNCC4)CC3)c12 [WX025],–
889,29.6,COC(=O)N1C[C@H]2C[C@@H]1CN2[C@H]1CC[C@H](Nc2nc(Nc3cnn(C4CCOCC4)c3)nc3snc(C)c23)CC1 [WX047],–
516,11.2,Cc1nsc2nc(Nc3cnn(C4CCOCC4)c3)nc(N[C@H]3CC[C@H](N4CCNC(C)C4)CC3)c12 (stereo partly shown) [WX049],–
139,7.9,COC(=O)N1CCCN(C2CCC(Nc3nc(Nc4cnn(C5CCOCC5)c4)nc4snc(C)c34)CC2)CC1 (stereo not shown) [WX039],–
–,363,Cc1nsc2nc(Nc3cnn(C4CCOCC4)c3)nc(N[C@H]3CC[C@H](N4CCOCC4=O)CC3)c12 [WX054],–
486,9.9,Cc1nsc2nc(Nc3cnn([C@H]4CCOC4)c3)nc(N[C@H]3CC[C@H](N4CCOCC4)CC3)c12 [WX006],–
–,8.7,Cn1cc(Nc2nc(N[C@H]3CC[C@H](N4CCOCC4)CC3)c3c(C4CCOCC4)nsc3n2)cn1 [WX005],–
–,3.8,Cc1nsc2nc(Nc3cnn(C4CCOCC4)c3)nc(N[C@H]3CC[C@H](N4CCN(C(C)C)CC4)CC3)c12 [WX029],–
–,1.1,COC(=O)N1CCN([C@H]2CC[C@H](Nc3nc(Nc4cnn(C5CCC(F)(F)CC5)c4)nc4snc(C)c34)CC2)CC1 [WX059],–

Compound,"IC50 (THP-1 cells; Homo sapiens, THP-1, 18 h) [nM]",IC50 (human IRAK4) [nM],further results
CC(=O)N1C2CC1CN([C@H]1CC[C@H](Nc3nc(Nc4cnn(C5CCOCC5)c4)nc4snc(C)c34)CC1)C2 [WX043],–,12.2,–
Cc1nsc2nc(Nc3cnn(C4CCOCC4)c3)nc(N[C@H]3CC[C@H](N4CC5CC(C4)N5)CC3)c12 [WX040],–,30,–
Cc1nsc2nc(Nc3cnn(C4CCOCC4)c3)nc(N[C@H]3CC[C@H](N4CC5CC(C4)N5C)CC3)c12 [WX041],–,21.4,–

# Source: patent US11459337B2, “Isothiazolo[5,4-D]pyrimidine compound as IRAK4 inhibitor” (priority 2018, dated 2022)
